Reference: the CheMixHub ionic liquid set
“And” between values parts separate entries of the source, which are not always exact repeats. Equal entries are not always repeated.

Test: xn = mol fraction of the nth substance listed

CCCCCCCCCCCCCC[n+]1ccccc1.O=C([O-])C(O)c1ccccc1 + C[C@H](N)C(=O)O + O
electrical conductivity [S/m], 101 kPa
Settings	293.15 K	298.15 K	303.15 K	308.15 K	313.15 K
x1 = 5.26e-06, x2 = 0.001799	0.00177	0.00202	0.00228	0.00255	0.00285
x1 = 6.85e-06, x2 = 0	0.00248	0.00278	0.00309	0.0034	0.0037
x1 = 7.23e-06, x2 = 0.0009002	0.00232	0.00263	0.00296	0.00329	0.0036
x1 = 1.107e-05, x2 = 0.001799	0.00339	0.00385	0.0043	0.00479	0.0053
x1 = 1.32e-05, x2 = 0.0009002	0.00408	0.00462	0.00517	0.0057	0.0063
x1 = 1.424e-05, x2 = 0	0.00472	0.00529	0.00587	0.0065	0.0071
x1 = 1.688e-05, x2 = 0.001799	0.00492	0.00558	0.00625	0.007	0.0077
x1 = 1.79e-05, x2 = 0.0009002	0.00545	0.00618	0.0069	0.0077	0.0084
x1 = 2.126e-05, x2 = 0	0.00671	0.0076	0.0084	0.0093	0.0101
x1 = 2.178e-05, x2 = 0.001799	0.00627	0.00713	0.008	0.0088	0.0098
x1 = 2.206e-05, x2 = 0.0009002	0.0066	0.0075	0.0084	0.0093	0.0102
x1 = 2.64e-05, x2 = 0.0009002	0.00784	0.0089	0.0099	0.011	0.0121
x1 = 2.686e-05, x2 = 0.001799	0.00759	0.0086	0.0097	0.0107	0.0118
x1 = 2.811e-05, x2 = 0	0.0086	0.0097	0.0108	0.0122	0.0131
x1 = 3.092e-05, x2 = 0.0009002	0.0091	0.0103	0.0115	0.0128	0.014
x1 = 3.158e-05, x2 = 0.001799	0.0088	0.01	0.0112	0.0124	0.0137
x1 = 3.46e-05, x2 = 0	0.0103	0.0116	0.0129	0.0145	0.0157
x1 = 3.653e-05, x2 = 0.0009002	0.0105	0.0119	0.0133	0.0148	0.0163
x1 = 3.702e-05, x2 = 0.001799	0.0101	0.0114	0.0128	0.0143	0.0158
x1 = 4.108e-05, x2 = 0	0.0117	0.0131	0.0146	0.0161	0.0179
x1 = 4.376e-05, x2 = 0.0009001	0.0119	0.0135	0.015	0.0168	0.0186
x1 = 4.392e-05, x2 = 0.001799	0.0113	0.0128	0.0143	0.016	0.0178
x1 = 4.811e-05, x2 = 0	0.0129	0.0144	0.0161	0.0179	0.0198
x1 = 5.045e-05, x2 = 0.0009001	0.0129	0.0146	0.0163	0.0184	0.0203
x1 = 5.136e-05, x2 = 0.001799	0.0124	0.0139	0.0156	0.0175	0.0195
x1 = 5.388e-05, x2 = 0	0.0137	0.0154	0.0172	0.0191	0.0211
x1 = 5.768e-05, x2 = 0.0009001	0.014	0.0158	0.0177	0.0198	0.022
x1 = 5.861e-05, x2 = 0.001799	0.0134	0.0151	0.0169	0.019	0.0211
x1 = 5.982e-05, x2 = 0	0.0145	0.0163	0.0182	0.0202	0.0224
x1 = 6.383e-05, x2 = 0.0009001	0.0148	0.0168	0.0188	0.021	0.0233
x1 = 6.559e-05, x2 = 0	0.0153	0.0172	0.0192	0.0213	0.0236
x1 = 6.569e-05, x2 = 0.001799	0.0143	0.0161	0.0181	0.0201	0.0224
x1 = 6.998e-05, x2 = 0.0009001	0.0157	0.0177	0.0198	0.0222	0.0246
x1 = 7.081e-05, x2 = 0	0.016	0.018	0.02	0.0223	0.0246
x1 = 7.222e-05, x2 = 0.001799	0.0151	0.0171	0.0192	0.0214	0.0236
x1 = 7.595e-05, x2 = 0.0009001	0.0165	0.0187	0.0209	0.0234	0.026
x1 = 7.604e-05, x2 = 0	0.0167	0.0187	0.0209	0.0232	0.0258
x1 = 7.839e-05, x2 = 0.001799	0.0159	0.018	0.0201	0.0225	0.0251
x1 = 8.072e-05, x2 = 0	0.0173	0.0194	0.0217	0.0241	0.0266

CCCC[N+](CCCC)(CCCC)Cc1ccccc1.[Cl-] + NC(=O)CC[C@H](N)C(=O)O + O
electrical conductivity [S/m], 100 kPa, frequency 0.001 MHz
Settings	293.15 K	298.15 K	303.15 K	308.15 K	313.15 K
x2 = 0.0001802, x1 = 1.802e-05	0.0331	0.0352	0.0382	0.041	0.0452
x2 = 0.0001803, x1 = 5.405e-05	0.0419	0.0441	0.0463	0.0496	0.0536
x2 = 0.0001804, x1 = 9.008e-05	0.0513	0.0542	0.0582	0.0612	0.0654
x2 = 0.0004504, x1 = 1.801e-05	0.0408	0.0453	0.0486	0.0523	0.0553
x2 = 0.0004507, x1 = 5.403e-05	0.0492	0.0543	0.057	0.0597	0.0642
x2 = 0.000451, x1 = 9.005e-05	0.0592	0.0641	0.067	0.069	0.0728
x2 = 0.0007205, x1 = 1.801e-05	0.0479	0.0557	0.0582	0.0614	0.0662
x2 = 0.0007209, x1 = 5.402e-05	0.0619	0.0683	0.0702	0.0724	0.0764
x2 = 0.0007213, x1 = 9.003e-05	0.0692	0.0768	0.0774	0.0796	0.0867
x2 = 0.0009904, x1 = 1.8e-05	0.0551	0.064	0.0692	0.071	0.0769
x2 = 0.000991, x1 = 5.4e-05	0.0713	0.0784	0.0819	0.0821	0.0806
x2 = 0.0009916, x1 = 9e-05	0.0768	0.0871	0.0876	0.0906	0.1
x2 = 0.00126, x1 = 1.8e-05	0.0646	0.0756	0.079	0.0819	0.0865
x2 = 0.001261, x1 = 5.399e-05	0.0809	0.0902	0.0923	0.0943	0.103
x2 = 0.001262, x1 = 8.998e-05	0.0911	0.098	0.0989	0.101	0.113
x2 = 0.00153, x1 = 1.799e-05	0.0733	0.0847	0.0896	0.0903	0.0994
x2 = 0.001531, x1 = 5.397e-05	0.0868	0.0975	0.103	0.105	0.116
x2 = 0.001532, x1 = 8.995e-05	0.099	0.106	0.108	0.109	0.119

viscosity [mPa·s], 100 kPa
Settings	293.15 K	298.15 K	303.15 K	308.15 K	313.15 K
x2 = 0.0001802, x1 = 1.802e-05	0.961	0.921	0.884	–	–
x2 = 0.0001803, x1 = 5.405e-05	0.969	0.929	0.888	–	–
x2 = 0.0001804, x1 = 9.008e-05	0.98	0.939	0.9	–	–
x2 = 0.0004504, x1 = 1.801e-05	0.969	0.93	0.893	0.858	0.803
x2 = 0.0004507, x1 = 5.403e-05	0.978	0.938	0.896	0.863	0.808
x2 = 0.000451, x1 = 9.005e-05	0.99	0.949	0.909	0.869	0.817
x2 = 0.0007205, x1 = 1.801e-05	0.977	0.939	0.902	0.867	0.812
x2 = 0.0007209, x1 = 5.402e-05	0.987	0.947	0.906	0.872	0.818
x2 = 0.0007213, x1 = 9.003e-05	1	0.96	0.919	0.88	0.827
x2 = 0.0009904, x1 = 1.8e-05	0.985	0.948	0.912	0.877	0.823
x2 = 0.000991, x1 = 5.4e-05	0.996	0.957	0.917	0.882	0.827
x2 = 0.0009916, x1 = 9e-05	1.01	0.97	0.929	0.891	0.838
x2 = 0.00126, x1 = 1.8e-05	0.994	0.956	0.921	0.887	0.833
x2 = 0.001261, x1 = 5.399e-05	1.005	0.967	0.926	0.894	0.838
x2 = 0.001262, x1 = 8.998e-05	1.021	0.98	0.939	0.901	0.849
x2 = 0.00153, x1 = 1.799e-05	1.002	0.965	0.929	0.897	0.843
x2 = 0.001531, x1 = 5.397e-05	1.014	0.977	0.936	0.904	0.849
x2 = 0.001532, x1 = 8.995e-05	1.029	0.99	0.95	0.912	0.86

CC(C)C[P+](C)(CC(C)C)CC(C)C.Cc1ccc(S(=O)(=O)[O-])cc1 + O
Settings	viscosity [mPa·s]
293.15 K, 101 kPa, x2 = 0.7599	68
293.15 K, 101 kPa, x2 = 0.8779	23
293.15 K, 101 kPa, x2 = 0.9283	11.6
293.15 K, 101 kPa, x2 = 0.9729	4
298.15 K, 100 kPa, x1 = 0.003319	1.115
298.15 K, 100 kPa, x1 = 0.00854	1.475
308.15 K, 100 kPa, x1 = 0.009239	1.175
333.15 K, 100 kPa, x1 = 0.9022	221
353.15 K, 100 kPa, x1 = 0.9022	79

CCC(=O)OC + O=S(=O)([N-]S(=O)(=O)C(F)(F)F)C(F)(F)F.[Li+]
298.1 K, 100 kPa, x2 = 0.333
Settings	electrical conductivity [S/m]	viscosity [mPa·s]
–	0.23	21.6

CCCCCCCC[N+](CC)(CC)CC.O=S(=O)([N-]S(=O)(=O)C(F)(F)F)C(F)(F)F + O
101 kPa, x2 = 0.1435
Settings	viscosity
318.05 K	36.51 mPa·s and 55.8 mPa·s
323.05 K	29.74 mPa·s

CCO + CC[N+]1(C)CCCC1.COP(=O)([O-])OC
100 kPa, x2 = 0
Settings	viscosity [mPa·s]
308.15 K	0.9
318.15 K	0.75
328.15 K	0.63
333.15 K	0.58

CCO + CC[n+]1ccn(C)c1.COP(=O)([O-])OC
100 kPa, x2 = 0
Settings	viscosity [mPa·s]
298.15 K	1.08
328.15 K	0.646

O=S(=O)([N-]S(=O)(=O)C(F)(F)C(F)(F)F)C(F)(F)F.[Li+] + O=S(=O)([O-])C(F)(F)F.[Li+] + O
101 kPa
Settings	electrical conductivity, x1 = 0.1527, x2 = 0.1527 [S/m]	electrical conductivity, x1 = 0.2128, x2 = 0.08265	electrical conductivity, x1 = 0.2128, x2 = 0.1527 [S/m]	electrical conductivity, x1 = 0.2551, x2 = 0.08265	electrical conductivity, x1 = 0.2649, x2 = 0 [S/m]	electrical conductivity, x1 = 0.3106, x2 = 0.1527 [S/m]	viscosity, x1 = 0.2128, x2 = 0.08265 [mPa·s]	viscosity, x1 = 0.2551, x2 = 0.08265 [mPa·s]	viscosity, x1 = 0.2649, x2 = 0 [mPa·s]
283 K	–	0.39 S/m	–	0.195 S/m	0.36	–	186	406	255
293 K	–	0.57 S/m	–	0.298 S/m	0.531	–	110	228	145
298.1 K	0.83	0.675 S/m and 0.68 S/m	0.41	0.362 S/m and 0.37 S/m	0.646	0.16	87	177	114
303 K	–	0.788 S/m	–	0.433 S/m	0.762	–	70.9	141	89.8
313 K	–	1.05 S/m	–	0.599 S/m	1.02	–	48.4	90.1	58.8
323 K	–	1.36 S/m	–	0.791 S/m	1.33	–	33.9	61.6	40.2
333 K	–	1.7 S/m	–	1.02 S/m	1.67	–	24.8	43.2	29.1
